Earlier results as cited in US8211887B2, “Topical preparation and method for transdermal delivery and localization of therapeutic agents” (priority 2005, dated 2012).
Read-outs that look alike come from different tables or passages of the source.

[1] = local anesthetic, for levobupivacaine: locally

## CCN(CC)CCOC(=O)c1ccc(N)cc1Cl [chloroprocaine]
Local anesthetic
  duration of action: 0.5 to 1 h
  onset of action: 6 to 12 min
  peak: 10 to 20 min

## CCCCN1CCCC[C@H]1C(=O)Nc1c(C)cccc1C [levobupivacaine]
If used for epidural or peripheral nerve blocks or obstetrical anesthesia
  duration of action: 3 to 9 h
Local anesthetic
  onset of action: 2 to 10 min
[1]
  duration of action: 2 to 4 h

## Cc1cccc(C)c1NC(=O)C1CCCCN1C (stereo not drawn) [mepivacaine]
Local anesthetic
  duration of action: 0.75 to 1.5 h
  onset of action: 3 to 5 min
  peak: 15 to 45 min

## CCN(CC)CCOC(=O)c1ccc(N)cc1 [procaine]
Local anesthetic
  onset of action: 5 to 10 min
  peak: less than 30 minutes
[1]
  duration of action: less than 2 hours

## CCCN1CCCC[C@H]1C(=O)Nc1c(C)cccc1C [ropivacaine]
Local anesthetic
  onset of action: 1 to 15 min
  peak: 20 to 45 min
[1]
  duration of action: 2 to 6 h
